Experimental data reported in ChEMBL document CHEMBL5034017, “Structural Insights into Schistosoma mansoni Carbonic Anhydrase (SmCA) Inhibition by Selenoureido-Substituted Benzenesulfonamides” (J Med Chem, 2021).
Calls of active or inactive are those of the source. The rule behind the calls is not given here.

What was measured:
[1] = Selectivity ratio of Ki for inhibition of recombinant human carbonic anhydrase 2 to Ki for inhibition of recombinant Schistosoma manson carbonic anhydrase; format: toxicity
[2] = Inhibition of recombinant Schistosoma manson carbonic anhydrase pre-incubated with enzyme for 15 mins by phenol red dye based stopped flow CO2 hydration assay; set-up: species or system Schistosoma mansoni
Schistosoma mansoni [3] = assay: Antischistosomal activity against Schistosoma mansoni Puerto-Rican infected in Swiss Webster mouse assessed as worm burden reduction at 50 mg/kg, ip administered at 42, 44 and 46 hrs post infection and measured after 2 weeks; format: functional, organism-based
Schistosoma mansoni [4] = assay: Antischistosomal activity against Schistosoma mansoni Puerto-Rican infected in Swiss Webster mouse assessed as worm burden reduction at 100 mg/kg, ip administered at 42, 44 and 46 hrs post infection and measured after 2 weeks; format: functional, organism-based

| SMILES | Ratio Ki [1] | Ki [2] [nM] | Activity (Schistosoma mansoni [3]) | Activity (Schistosoma mansoni [4]) |
| --- | --- | --- | --- | --- |
| NS(=O)(=O)c1ccc(NC(=[Se])Nc2ccccc2Cl)cc1 | 0.6 | 6.8 |  |  |
| CC(=O)Nc1nnc(S(N)(=O)=O)s1 [ACETAZOLAMIDE] | 0.3 | 42.5 |  |  |
| COc1ccccc1NC(=[Se])NCCc1ccc(S(N)(=O)=O)cc1 | 0.7 | 6.1 |  |  |
| NS(=O)(=O)c1ccc(NC(=O)Nc2ccc(F)cc2)cc1 [SLC-0111] | 1.7 | 54.3 | inactive |  |
| NS(=O)(=O)c1ccc(CCNC(=[Se])Nc2ccccc2)cc1 | 1.7 | 3.2 |  |  |
| NS(=O)(=O)c1cccc(NC(=[Se])Nc2ccccc2)c1 | 0.8 | 426 |  |  |
| NS(=O)(=O)c1ccc(CCNC(=[Se])Nc2ccc3ccccc3c2)cc1 | 1.1 | 84.9 |  |  |
| NS(=O)(=O)c1ccc(CCNC(=S)Nc2ccc(I)cc2)cc1 | 0.2 | 37.6 |  |  |
| NS(=O)(=O)c1ccc(CCNC(=[Se])Nc2ccc(I)cc2)cc1 | 12.2 | 4.7 |  |  |
| NS(=O)(=O)c1ccc(NC(=S)Nc2ccc(F)cc2)cc1 | 0.6 | 23.3 |  |  |
| NS(=O)(=O)c1ccc(NC(=[Se])Nc2cccc(C(F)(F)F)c2)cc1 | 4.1 | 1.5 |  |  |
| NS(=O)(=O)c1ccc(NC(=[Se])Nc2ccccc2F)cc1 | 1.1 | 5.7 |  |  |
| NS(=O)(=O)c1ccc(CCNC(=[Se])Nc2ccc(Br)cc2)cc1 | 1.05 | 1.7 |  |  |
| NS(=O)(=O)c1ccc(CCNC(=[Se])Nc2ccccc2Cl)cc1 | 0.6 | 5.8 |  | inactive |
| NS(=O)(=O)c1ccc(CCNC(=[Se])Nc2cccc(C(F)(F)F)c2)cc1 | 0.97 | 4.5 |  |  |
| NS(=O)(=O)c1ccc(CCNC(=O)Nc2ccc(I)cc2)cc1 | 0.6 | 13.3 |  |  |
| NS(=O)(=O)c1ccc(NC(=[Se])Nc2ccc(F)cc2)cc1 | 0.9 | 76.8 |  |  |
| NS(=O)(=O)c1ccc(CCNC(=[Se])Nc2ccccc2F)cc1 | 1 | 7.9 |  |  |
| NS(=O)(=O)c1cccc(NC(=[Se])Nc2ccc(F)cc2)c1 | 4.2 | 91.4 |  |  |
| NS(=O)(=O)c1ccc(NC(=[Se])Nc2ccccc2)cc1 | 0.6 | 83.7 |  | inactive |
